Assay [1] concerns the target Human cytomegalovirus protease (assemblin) (Human herpesvirus 5). Briefly: Inhibitory activity against HCMV protease by SPA assay.
Assay [2] has the same target. Description: Inhibitory activity against HCMV protease by HPLC assay.
The target is the same in assay [3]. The description is as above. The source holds these as a separate data set.

Structures are written as SMILES.

In general, IC50 refers to the concentration that inhibits the measured activity by half.

Turning to `CC(=O)C(C(C)=O)C1=C(Cl)C(=O)c2ccccc2C1=O` [2-(1-Acetyl-2-oxo-propyl)-3-chloro-[1,4]naphthoquinone], the half-inhibitory concentration (IC50) in assay [1] came out at 0.8 µM; in assay [2], 0.72 µM. The corresponding values for `CC(=O)C(C(=O)OCc1ccccc1)C1=C(Cl)C(=O)c2ccccc2C1=O` (configuration not stated) [2-(3-Chloro-1,4-dioxo-1,4-dihydro-naphthalen-2-yl)-3-oxo-butyric acid benzyl ester] are 0.73 µM and 0.7 µM. `CCOC(=O)C(C(C)=O)C1=C(Cl)C(=O)c2ccccc2C1=O` (configuration not stated) [2-(3-Chloro-1,4-dioxo-1,4-dihydro-naphthalen-2-yl)-3-oxo-butyric acid ethyl ester]: the IC50 came to 1.45 µM in assay [1] and 4.8 µM in assay [2]. Turning to `CC(=O)C(C(=O)OC(C)C)C1=C(Cl)C(=O)c2ccccc2C1=O` (configuration not stated) [2-(3-Chloro-1,4-dioxo-1,4-dihydro-naphthalen-2-yl)-3-oxo-butyric acid isopropyl ester], the IC50 is 2.68 µM in assay [1] and 9.1 µM in assay [2]. As to `CC1(C)CC(=O)C(C2=C(Cl)C(=O)c3ccccc3C2=O)C(=O)C1` [2-Chloro-3-(4,4-dimethyl-2,6-dioxo-cyclohexyl)-[1,4]naphthoquinone], half-maximal inhibition in assay [3] (IC50) required 150 µM. The same measure, in the same setting: under `O=C1C(Cl)=C(C2CCCCCC2)C(=O)c2ccccc21` [2-Chloro-3-cycloheptyl-[1,4]naphthoquinone] stands 67 µM; under `O=C1C(OC2CCCCC2)=C(C2CCCCC2)C(=O)c2ccccc21` [2-Cyclohexyl-3-cyclohexyloxy-[1,4]naphthoquinone], 110 µM. Same read-out and setting: as for `COC(=O)CC1=C(Cl)C(=O)c2ccccc2C1=O` [(3-Chloro-1,4-dioxo-1,4-dihydro-naphthalen-2-yl)-acetic acid methyl ester], the figure is 148 µM.

These data come from BindingDB's records for doi:10.1016/s0960-894x(99)00489-8 (Glaxowellcome Medicines Research Centre, 1999).
